This note sets out measurements from PubChem BioAssay AID720726 (Broad Institute, 2013).

Activity calls are given as the source filed them.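 How the source made its calls: active means fitted dose curve rising to 40 percent activity within the top usable dose; inconclusive means flat curve between 30 and 70 percent, or poor fit; inactive means the rest, including signal moving the wrong way.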

The first assay has as its system Huh7 miR-122 levels, qRT-PCR, 48 h. The assay is described as follows: activators raising endogenous miR-122 levels, dose response, orthogonal assay, cell-based, Huh7, qRT-PCR, dry powder (AID 720726).
Conditions: not given
In the case of `CCCC#Cc1ccc2c(c1)O[C@H](CN(C)C(=O)COC)[C@H](C)CN([C@@H](C)CO)S2(=O)=O`, the AC40 is 23.9 µM. With `CCCC#Cc1ccc2c(c1)O[C@H](CN(C)C(=O)c1ccncc1)[C@H](C)CN([C@@H](C)CO)S2(=O)=O`, the AC40 is 3.54 µM. On the same count and under the same terms, to `Cc1cccc(NC(=O)Nc2ccc3c(c2)C(=O)N(C)[C@@H]2CC[C@H](CC(=O)NCc4ccccc4Cl)O[C@H]2CO3)c1` belongs 8.38 µM; to `COCC(=O)N(C)C[C@H]1Oc2cc(C#Cc3cccnc3)ccc2S(=O)(=O)N([C@H](C)CO)C[C@H]1C`, 16.9 µM.

Tested on in the next assay: not listed separately
The assay is described as above. The following applies: Huh7 miR-122 levels, qRT-PCR, 48 h; at 30 µM (top of the series). On the technique in general: Real-time PCR tracks product formation cycle by cycle.
As for `CN1C(=O)c2cc(NC(=O)c3cccc(F)c3)ccc2OC[C@@H]2O[C@@H](CC(=O)O)CC[C@H]21`, the miR-122 fold change is 0.927 fold change (inactive).

Staying with this assay, now noted: Huh7 miR-122 levels, qRT-PCR, 48 h; at 35 µM (top of the series).
As to `COc1ccc(-c2cnc3c(c2)C(=O)N([C@@H](C)CO)C[C@H](C)[C@H](CN(C)S(=O)(=O)c2ccc(OC)cc2)O3)cc1`, the miR-122 fold change is 1.26 fold change (inactive).

As for `C[C@H]1CN([C@@H](C)CO)S(=O)(=O)c2ccc(C#Cc3ccncc3)cc2O[C@@H]1CN(C)C(=O)C1CCOCC1`, the miR-122 fold change is 0.399 fold change (inactive). The same measure, in the same setting: the same measure for `O=C(CN=C1NS(=O)(=O)c2ccccc21)Nc1ccccc1N1CCCCCC1`: 1.09 fold change (inactive); for `C[C@H]1CN([C@@H](C)CO)C(=O)c2cc(C#Cc3ccccc3F)cnc2O[C@H]1CN(C)C(=O)C1CCCCC1`: 0.569 fold change (inactive); for `Cc1cccc(NC(=O)Nc2ccc3c(c2)C(=O)N(C)[C@@H]2CC[C@@H](CC(=O)NCc4ccccc4Cl)O[C@H]2CO3)c1`: 1.25 fold change (inactive). Same read-out and setting: to `CO[C@@H]1CN(C)C(=O)c2cc(NC(=O)c3ccc4c(c3)OCO4)ccc2OC[C@H](C)NC[C@@H]1C` belongs 1.02 fold change (inactive). Same read-out and setting: the same measure for `CN1C(=O)c2cc(NC(=O)c3cccc(F)c3)ccc2OC[C@@H]2O[C@H](CC(=O)O)CC[C@@H]21`: 0.92 fold change (inactive); for `COCC(=O)N(C)C[C@H]1Oc2cc(-c3ccc(C#N)cc3)ccc2S(=O)(=O)N([C@@H](C)CO)C[C@H]1C`: 1.17 fold change (inactive); for `C[C@H](CO)N1C[C@H](C)[C@H](CN(C)C(=O)C2CCOCC2)Oc2cc(C#Cc3ccncc3)ccc2S1(=O)=O`: 0.417 fold change (inactive). Regarding `COCC(=O)N(C)C[C@@H]1Oc2ncc(-c3ccc(C#N)cc3)cc2C(=O)N([C@@H](C)CO)C[C@@H]1C`, the miR-122 fold change was 1.01 fold change (inactive). Still for that read-out and setting: the same measure for `CN1C(=O)c2cc(NC(=O)c3cccc(F)c3)ccc2OC[C@H]2O[C@H](CC(=O)O)CC[C@H]21`: 0.909 fold change (inactive); for `CNC[C@@H]1Oc2cc(C#CC3CCCCC3)ccc2S(=O)(=O)N([C@@H](C)CO)C[C@@H]1C`: 1.07 fold change (inactive). On the same count and under the same terms, the same measure for `OCc1ccc(-c2nn(Cc3ccccc3)c3ccccc23)o1`: 0.428 fold change (inactive); for `C[C@H](CO)N1C[C@H](C)[C@@H](CN(C)C(=O)C2CCOCC2)Oc2cc(C#Cc3ccncc3)ccc2S1(=O)=O`: 0.407 fold change (inactive). Still for that read-out and setting: the same measure for `C[C@@H]1CN([C@H](C)CO)S(=O)(=O)c2ccc(C#Cc3ccncc3)cc2O[C@@H]1CN(C)C(=O)C1CCOCC1`: 0.732 fold change (inactive). Take `C[C@@H]1CN([C@H](C)CO)S(=O)(=O)c2ccc(/C=C/c3ccccc3)cc2O[C@@H]1CN(C)C(=O)c1cccnc1`: the miR-122 fold change was 1.11 fold change (inactive). Still for that read-out and setting: to `C/C=C/c1cnc2c(c1)C(=O)N([C@@H](C)CO)C[C@H](C)[C@H](CN(C)S(=O)(=O)c1ccc(OC)cc1)O2` belongs 1.05 fold change (inactive); to `COc1cccc(-c2ccc3c(c2)O[C@H](CN(C)C(=O)C2CCOCC2)[C@H](C)CN([C@@H](C)CO)S3(=O)=O)c1`, 0.896 fold change (inactive).

As to `CN1C(=O)c2cc(NC(=O)c3cccc(F)c3)ccc2OC[C@H]2O[C@@H](CC(=O)O)CC[C@H]21`, the miR-122 fold change is 1.38 fold change (inactive). `CCOC(=O)N1CCC(NC(=O)c2ccc3nc(N4CCC(C)CC4)sc3c2)CC1`: the miR-122 fold change was 1 fold change (inactive).

`Nc1ccc(Oc2ccc(Cl)cc2)cc1`: the miR-122 fold change is 0.496 fold change (inactive). On the same count and under the same terms, the same measure for `Cc1cc(C(C)(C)C)cc(S(=O)(=O)N2CCOCC2)c1C`: 0.977 fold change (inactive); for `CCN(CC)C(=O)c1cccc(NC(=O)c2ccc(Cl)cc2Cl)c1`: 0.931 fold change (inactive); for `O=S(=O)(NCCc1ccncc1)c1ccccc1`: 1.01 fold change (inactive).

As to `CN(C)CCN1C(=O)c2cccc3cc(N)cc(c23)C1=O`, the miR-122 fold change was 0.364 fold change (inactive). For the molecule `CCn1cc(C(=O)O)c(=O)c2cc(F)c(N3CCNCC3)nc21`, the miR-122 fold change was 0.972 fold change (inactive).

For `C[C@H]1CN([C@@H](C)CO)S(=O)(=O)c2ccc(C#Cc3ccncc3)cc2O[C@H]1CN(C)C(=O)C1CCOCC1`, the miR-122 fold change is 0.373 fold change (inactive). As to `CN1C(=O)c2cc(NC(=O)c3cccc(F)c3)ccc2OC[C@H]2O[C@@H](CC(=O)O)CC[C@@H]21`, the miR-122 fold change was 1.24 fold change (inactive). Same read-out and setting: to `O=C(c1ccc(CN2CCOCC2)cc1)N1CCc2ccccc21` belongs 1 fold change (inactive); to `COCC(=O)N(C)C[C@H]1Oc2cc(-c3ccc(C#N)cc3)ccc2S(=O)(=O)N([C@H](C)CO)C[C@H]1C`, 0.895 fold change (inactive); to `C[C@H]1CN([C@@H](C)CO)C(=O)c2cc(-c3ccc(C#N)cc3)cnc2O[C@H]1CN(C)C(=O)Nc1ccc(C(F)(F)F)cc1`, 0.749 fold change (inactive).

Turning to `CCOC(=O)N1CCC(NC(=O)c2ccc3c(c2)sc2nc(-c4ccccc4)cn23)CC1`, the miR-122 fold change is 0.356 fold change (inactive).

Consider `CN1C(=O)c2cc(NC(=O)c3cccc(F)c3)ccc2OC[C@@H]2O[C@@H](CC(=O)O)CC[C@@H]21`, for which the miR-122 fold change was 0.94 fold change (inactive). Take `O=C(NCCC1=CCCCC1)c1ccc2c(c1)sc1nc(-c3ccccc3)cn12`: the miR-122 fold change is 0.828 fold change (inactive).

For `COCC(=O)N(C)C[C@H]1Oc2cc(C#Cc3cccnc3)ccc2S(=O)(=O)N([C@@H](C)CO)C[C@H]1C`, the miR-122 fold change was 0.983 fold change (inactive). Regarding `C[C@H]1CN([C@@H](C)CO)C(=O)c2cc(C#Cc3ccccc3F)cnc2O[C@@H]1CN(C)C(=O)C1CCCCC1`, the miR-122 fold change is 0.164 fold change (inactive). On the same count and under the same terms, the same measure for `O=C(Nc1ccc(-c2nc3ccccc3o2)cc1)c1cc(-n2cnnc2)ccc1Cl`: 0.17 fold change (inactive); for `CO[C@@H]1CN(C)C(=O)c2cc(NS(=O)(=O)c3ccc(Oc4ccccc4)cc3)ccc2OC[C@H](C)NC[C@@H]1C`: 0.882 fold change (inactive). Still for that read-out and setting: to `CCCCN(CCCC)C(=O)CN(C)S(=O)(=O)c1ccc2c(c1)n(C)c(=O)c(=O)n2C` belongs 0.906 fold change (inactive); to `O=C(NCc1ccccc1Cl)c1ccc(CNc2c(NC3CCCCC3)c(=O)c2=O)cc1`, 0.171 fold change (inactive).

In the case of `COc1ccc(S(=O)(=O)N(C)C[C@@H]2Oc3ncc(/C=C/c4ccccc4)cc3C(=O)N([C@@H](C)CO)C[C@@H]2C)cc1`, the miR-122 fold change was 0.9 fold change (inactive). On the same count and under the same terms, the same measure for `Cn1c(=O)c(=O)n(C)c2cc(S(=O)(=O)N3CCOCC3)ccc21`: 1.28 fold change (inactive); for `O=C(CNCCC1=CCCCC1)Nc1ccccc1N1CCCCCC1`: 0.489 fold change (inactive); for `COCC(=O)N(C)C[C@H]1Oc2cc(-c3ccccc3F)ccc2S(=O)(=O)N([C@@H](C)CO)C[C@H]1C`: 0.823 fold change (inactive). Still for that read-out and setting: to `C[C@@H]1CN([C@@H](C)CO)S(=O)(=O)c2ccc(C#Cc3ccncc3)cc2O[C@H]1CN(C)C(=O)C1CCOCC1` belongs 0.639 fold change (inactive); to `CN(CC(=O)Nc1cccc(Cl)c1)S(=O)(=O)c1ccc2c(c1)n(C)c(=O)c(=O)n2C`, 1.27 fold change (inactive); to `C[C@@H]1CN([C@H](C)CO)S(=O)(=O)c2ccc(C#Cc3ccncc3)cc2O[C@H]1CN(C)C(=O)C1CCOCC1`, 0.486 fold change (inactive). Same read-out and setting: the same measure for `CO[C@@H]1CN(C)C(=O)c2cc(NC(=O)c3cccc(Oc4ccccc4)c3)ccc2OC[C@H](C)NC[C@@H]1C`: 0.113 fold change (inactive); for `COc1cccc(C(=O)Nc2ccc3c(c2)C(=O)N(C)C[C@@H](OC)[C@@H](C)CN[C@@H](C)CO3)c1`: 1.15 fold change (inactive); for `C[C@H]1CN([C@@H](C)CO)C(=O)c2cc(-c3ccc(C#N)cc3)cnc2O[C@H]1CN(C)C(=O)c1ccccc1`: 1.14 fold change (inactive). Consider `C[C@@H]1CN([C@@H](C)CO)S(=O)(=O)c2ccc(C#Cc3ccncc3)cc2O[C@@H]1CN(C)C(=O)C1CCOCC1`, for which the miR-122 fold change was 0.563 fold change (inactive).

`Nc1ccc(Oc2ccc(Br)cc2)cc1`: the miR-122 fold change is 0.505 fold change (inactive). The same measure, in the same setting: the same measure for `CN1C(=O)c2cc(NC(=O)c3cccc(F)c3)ccc2OC[C@@H]2O[C@H](CC(=O)O)CC[C@H]21`: 0.958 fold change (inactive). For the molecule `C[C@H]1CN([C@@H](C)CO)C(=O)c2cc(-c3ccc(C#N)cc3)cnc2O[C@H]1CN(C)Cc1cncnc1`, the miR-122 fold change is 0.987 fold change (inactive).

In the case of `Cc1cc(C(C)(C)C)cc(S(=O)(=O)NCCc2ccncc2)c1C`, the miR-122 fold change was 1.04 fold change (inactive). On the same count and under the same terms, to `CN1C(=O)c2cc(NC(=O)c3cccc(F)c3)ccc2OC[C@H]2O[C@H](CC(=O)O)CC[C@@H]21` belongs 0.869 fold change (inactive); to `O=C(c1ccc(CNc2c(NC3CCCCC3)c(=O)c2=O)cc1)N1CCc2ccccc21`, 0.521 fold change (inactive); to `CN(C)CCCOc1nn(Cc2ccccc2)c2ccccc12`, 1.5 fold change (inactive).
